# Assay results as given in ChEMBL document CHEMBL1126831, “A structure-activity study of four dopamine D-1 and D-2 receptor antagonists, representing the phenylindan, -indene, and -indole structural classes of compounds” (J Med Chem, 1993).
# Assays:
# D(1A) dopamine receptor = D(1A) dopamine receptor (Rattus norvegicus, UniProt P18901); experiment: Binding affinity towards dopamine receptor D1 by displacement of [3H]-SCH- radioligand in rat striatal membranes; format: cell membranes, Membrane
# D(2) dopamine receptor = D(2) dopamine receptor (Rattus norvegicus, UniProt P61169); experiment: Binding affinity towardst dopamine D2 receptor by displacement of [3H]-SPI radioligand in rat striatal membranes; format: cell membranes, Membrane
# Sequence of D(2) dopamine receptor (P61169 whole entry): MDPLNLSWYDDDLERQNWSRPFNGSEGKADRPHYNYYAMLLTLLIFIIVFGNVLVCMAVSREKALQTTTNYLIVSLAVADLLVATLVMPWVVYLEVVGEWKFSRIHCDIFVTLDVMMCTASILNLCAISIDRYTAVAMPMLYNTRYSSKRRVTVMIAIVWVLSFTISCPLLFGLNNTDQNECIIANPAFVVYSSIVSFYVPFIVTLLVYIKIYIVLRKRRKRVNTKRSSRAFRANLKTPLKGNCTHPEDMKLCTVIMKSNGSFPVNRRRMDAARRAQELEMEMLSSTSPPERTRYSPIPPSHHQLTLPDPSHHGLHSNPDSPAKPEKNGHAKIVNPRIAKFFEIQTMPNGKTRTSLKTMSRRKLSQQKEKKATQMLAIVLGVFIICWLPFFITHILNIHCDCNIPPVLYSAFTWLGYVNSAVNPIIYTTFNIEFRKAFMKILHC
# Sequence of D(1A) dopamine receptor (P18901 whole entry): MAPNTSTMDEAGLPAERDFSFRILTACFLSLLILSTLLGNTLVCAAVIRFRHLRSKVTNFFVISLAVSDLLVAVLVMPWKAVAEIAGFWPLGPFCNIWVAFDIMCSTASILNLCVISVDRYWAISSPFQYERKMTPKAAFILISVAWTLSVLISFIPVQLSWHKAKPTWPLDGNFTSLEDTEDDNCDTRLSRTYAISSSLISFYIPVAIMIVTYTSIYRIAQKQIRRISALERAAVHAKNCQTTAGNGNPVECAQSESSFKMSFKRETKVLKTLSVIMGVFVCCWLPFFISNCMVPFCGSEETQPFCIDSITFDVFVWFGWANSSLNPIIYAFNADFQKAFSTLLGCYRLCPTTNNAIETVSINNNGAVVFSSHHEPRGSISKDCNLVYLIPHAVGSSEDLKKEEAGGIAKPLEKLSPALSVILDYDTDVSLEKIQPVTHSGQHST
Structure (SMILES),IC50 (D(1A) dopamine receptor),IC50 (D(2) dopamine receptor)
CN1CC=C(c2cn(-c3ccc(F)cc3)c3ccc(Cl)cc23)CC1,9.8 nM,
CN1CCC(C2=CC(c3ccc(F)cc3)c3ccc(Cl)cc32)CC1 (stereo not drawn),12 nM,19 nM
CN1CCN(C2CC(c3ccc(F)cc3)c3ccc(Cl)cc32)CC1 (stereo not drawn),9.5 nM,12 nM
CN1CC=C(C2=CC(c3ccc(F)cc3)c3ccc(Cl)cc32)CC1 (stereo not drawn),23 nM,5.1 nM
OCCN1CCN([C@@H]2C[C@@H](c3ccc(F)cc3)c3ccc(C(F)(F)F)cc32)CC1 [TEFLUDAZINE],19 nM,
